This assay has as its target T1, human IDO1 (Homo sapiens, UniProt P14902).
T1 construct: expressed in transfected cells
Nature of the assay: HEK293 cells stably expressing human IDO1, IDO inhibition assay (kynurenine, Ehrlich reagent). The format is cell-based. The conditions noted are these: 20 hours incubation, absorbance at 490 nm, read-out: HEK Human IDO-1 Bio Activity (IDO IC50). As for the experimental part:
HEK293 cells were transfected with a pCDNA-based mammalian expression vector harboring human IDO1 cDNA (NM 002164.2) by electroporation. They were cultured in medium (DMEM with 10% FBS) containing 1 mg/ml G418 for two weeks. Clones of HEK293 cells that stably expressed human IDO1 protein were selected and expanded for IDO inhibition assay. The human IDO1/HEK293 cells were seeded at 10,000 cells per 50 μL per well with RPMI/phenol red free media contains 10% FBS in a 384-well black wall clear bottom tissue culture plate (Matrix Technologies LLC) 100 nL of certain concentration of compound was then added to each well using ECHO liquid handling systems. The cells were incubated for 20 hours in 37° C. incubator with 5% CO2. The compound treatments were stopped by adding trichloroacetic acid (Sigma-Aldrich) to a final concentration at 0.2%. The cell plate was further incubated at 50° C. for 30 minute. The equal volume supernatant (20 μL) and 0.2% (w/v) Ehrlich reagent (4-dimethylaminobenzaldehyde, Sigma-Aldrich) in glacial acetic acid were mixed in a new clear bottom 384-well plate. This plate was then incubated at room temperature for 30 minute. The absorbance at 490 nm was measured on Envision plate reader. Compound IC50 values were calculated using the counts of 500 nM of a reference standard treatment as one hundred percent inhibition, and counts of no compound but DMSO treatment as zero percent inhibition.

The term IC50 denotes the concentration at which inhibition is half-maximal.

T1 sequence (P14902 whole entry): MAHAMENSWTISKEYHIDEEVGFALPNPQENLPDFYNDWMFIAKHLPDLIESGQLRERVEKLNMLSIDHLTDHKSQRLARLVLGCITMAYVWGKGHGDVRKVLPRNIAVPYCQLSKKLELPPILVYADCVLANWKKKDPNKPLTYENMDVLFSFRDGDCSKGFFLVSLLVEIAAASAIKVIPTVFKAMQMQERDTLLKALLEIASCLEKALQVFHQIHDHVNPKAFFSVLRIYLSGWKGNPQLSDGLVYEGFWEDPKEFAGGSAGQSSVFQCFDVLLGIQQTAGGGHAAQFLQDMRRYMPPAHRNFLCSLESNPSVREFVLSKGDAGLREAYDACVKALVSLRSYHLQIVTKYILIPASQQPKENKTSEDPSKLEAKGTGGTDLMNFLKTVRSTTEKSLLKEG

Turning to `C[C@H](NC(=O)N[C@H]1CC[C@@H](c2ccnc3ccc(F)cc32)CC1)c1ccc(Cl)cc1` [Example 35, 1-((S)-1-(4-chlorophenyl)ethyl)-3-((1s,4R)-4-(6-fluoroquinolin-4-yl)cyclohexyl)urea], the IC50 was under 1000 nM.

As for `CN(C(=O)Nc1ccc(Cl)cc1)[C@H]1CC[C@H](c2ccnc3ccc(F)cc32)CC1` [Example 14, 3-(4-Chlorophenyl)-1-(trans-4-(6-fluoroquinolin-4-yl)cyclohexyl)-1-methylurea], the IC50 is under 100 nM.

In the case of `COc1ccc(CN(C(=O)Nc2ccc(F)cc2F)[C@H]2CC[C@H](c3ccccc3)CC2)cc1` [Example 5, 3-(2,4-difluorophenyl)-1-(4-methoxybenzyl)-1-(trans-4-phenylcyclohexyl)urea], the half-maximal inhibitory concentration (IC50) was under 1000 nM.

Take `CN(C(=O)Nc1ccc(Cl)cc1)C1CCN(c2ccnc3ccc(F)cc23)CC1` [Example 1, 3-(4-Chlorophenyl)-1-(1-(6-fluoroquinolin-4-yl)piperidin-4-yl)-1-methylurea]: the IC50 is under 1000 nM.

Take `C[C@H](NC(=O)N(C)[C@H]1CC[C@H](c2ccnc3ccc(F)cc32)CC1)c1ccc(Cl)cc1` [Example 36, 3-((S)-1-(4-chlorophenyl)ethyl)-1-((1r,4S)-4-(6-fluoroquinolin-4-yl)cyclohexyl)-1-methylurea]: the half-maximal inhibitory concentration (IC50) was under 1000 nM.

With `O=C(Nc1ccc(F)cc1)N(Cc1ccccc1)[C@H]1CC[C@H](c2ccnc3ccc(F)cc32)CC1` [Example 19, 1-benzyl-3-(4-fluorophenyl)-1-(trans-4-(6-fluoroquinolin-4-yl)cyclohexyl)urea], the half-maximal inhibitory concentration (IC50) was under 100 nM.

Consider `Cc1ccc(NC(=O)N(Cc2ccccc2)[C@H]2CC[C@H](c3ccnc4ccc(F)cc43)CC2)cc1` [Example 20, 1-benzyl-1-(trans-4-(6-fluoroquinolin-4-yl)cyclohexyl)-3-(p-tolyl)urea], for which the IC50 was under 1000 nM.

In the case of `O=C(Nc1ccc(Cl)cc1)N(Cc1ccccc1)[C@H]1CC[C@@H](c2ccnc3ccc(F)cc32)CC1` [Example 23, 1-benzyl-3-(4-chlorophenyl)-1-(cis-4-(6-fluoroquinolin-4-yl)cyclohexyl)urea], the concentration for half-maximal inhibition (IC50) was under 1000 nM.

Consider `O=C(Nc1ccc(Cl)cc1)N(Cc1ccccc1)[C@H]1CC[C@H](c2ccnc3ccc(F)cc32)CC1` [Example 18, 1-benzyl-3-(4-chlorophenyl)-1-(trans-4-(6-fluoroquinolin-4-yl)cyclohexyl)urea], for which the 50% inhibitory concentration (IC50) is under 100 nM.

With `COc1ccc(CN(C(=O)Nc2ccc(Cl)cc2)[C@H]2CC[C@H](c3ccccc3)CC2)cc1` [Example 4, 3-(4-Chlorophenyl)-1-(4-methoxybenzyl)-1-((1r,4r)-4-phenylcyclohexyl)urea], the half-maximal inhibitory concentration (IC50) was under 100 nM.

For the compound `CCCCc1ccc(NC(=O)N(C)C2CCN(c3ccnc4ccc(F)cc34)CC2)cc1` [Example 2, 3-(4-Butylphenyl)-1-(1-(6-fluoroquinolin-4-yl)piperidin-4-yl)-1-methylurea], the IC50 is under 100 nM.

For the compound `COc1ccc(CN(C(=O)N[C@H](C)c2ccc(F)cc2)C2CCC(c3ccccc3)CC2)cc1` (stereo partly drawn) [Example 33, 3-((R)-1-(4-fluorophenyl)ethyl)-1-(4-methoxybenzyl)-1-((1r,4R)-4-phenylcyclohexyl)urea], the half-maximal inhibitory concentration (IC50) is under 100 nM.

As to `C[C@H](NC(=O)N[C@H]1CC[C@H](c2ccnc3ccc(F)cc32)CC1)c1ccc(Cl)cc1` [Example 34, 1-((S)-1-(4-chlorophenyl)ethyl)-3-((1r,4S)-4-(6-fluoroquinolin-4-yl)cyclohexyl)urea], the IC50 was under 1000 nM.

Take `O=C(O)Cc1ccc(CN(C(=O)Nc2ccccc2)[C@H]2CC[C@H](c3ccnc4ccc(F)cc43)CC2)cc1` [Example 27, 2-(4-((1-(trans-4-(6-fluoroquinolin-4-yl)cyclohexyl)-3-phenylureido)methyl)phenyl)acetic acid]: the 50% inhibitory concentration (IC50) is under 100 nM.

With `CN(C(=O)Nc1ccc(OC(F)(F)F)cc1)C1CCN(c2ccnc3ccc(F)cc23)CC1` [Example 3, 1-(1-(6-Fluoroquinolin-4-yl)piperidin-4-yl)-1-methyl-3-(4-(trifluoromethoxy)phenyl)urea], the IC50 was under 1000 nM.

As for `COc1ccc(CN(C(=O)Nc2ccc(C(F)(F)F)cc2)[C@H]2CC[C@H](c3ccccc3)CC2)cc1` [Example 12, 1-(4-methoxybenzyl)-1-(trans-4-phenylcyclohexyl)-3-(4-(trifluoromethyl)phenyl)urea], the IC50 is under 100 nM.

As for `C[C@H](NC(=O)N(Cc1ccccc1)[C@H]1CC[C@H](c2ccnc3ccc(F)cc32)CC1)c1ccc(Cl)cc1` [Example 39, 1-benzyl-3-((S)-1-(4-chlorophenyl)ethyl)-1-((1r,4S)-4-(6-fluoroquinolin-4-yl)cyclohexyl)urea], the IC50 was under 10000 nM.

`O=C(O)Cc1ccc(CN(C(=O)Nc2ccc(Cl)cc2)[C@H]2CC[C@@H](c3ccnc4ccc(F)cc43)CC2)cc1` [Example 28, 2-(4-((3-(4-chlorophenyl)-1-(cis-4-(6-fluoroquinolin-4-yl)cyclohexyl)ureido)methyl)phenyl)acetic acid]: the 50% inhibitory concentration (IC50) is under 10000 nM.

With `CCN(C(=O)Nc1ccc(Cl)cc1)[C@H]1CC[C@@H](c2ccnc3ccc(F)cc32)CC1` [Example 17, 3-(4-chlorophenyl)-1-ethyl-1-(cis-4-(6-fluoroquinolin-4-yl)cyclohexyl)urea], the IC50 is under 1000 nM.

Consider `CCN(C(=O)Nc1ccc(Cl)cc1)[C@H]1CC[C@H](c2ccnc3ccc(F)cc32)CC1` [Example 16, 3-(4-Chlorophenyl)-1-ethyl-1-(trans-4-(6-fluoroquinolin-4-yl)cyclohexyl)urea], for which the 50% inhibitory concentration (IC50) was under 100 nM.

As for `COc1ccc(CN(C(=O)Nc2ccc(F)cc2)[C@H]2CC[C@H](c3ccccc3)CC2)cc1` [Example 9, 3-(4-fluorophenyl)-1-(4-methoxybenzyl)-1-(trans-4-phenylcyclohexyl)urea], the half-inhibitory concentration (IC50) was under 1000 nM.

Take `CCN(C(=O)N[C@@H](C)c1ccc(Cl)cc1)[C@H]1CC[C@H](c2ccnc3ccc(F)cc32)CC1` [Example 37, 3-((S)-1-(4-chlorophenyl)ethyl)-1-ethyl-1-((1r,4S)-4-(6-fluoroquinolin-4-yl)cyclohexyl)urea]: the IC50 was under 1000 nM.

Consider `COc1ccc(CN(C(=O)NC2CCCCC2)[C@H]2CC[C@H](c3ccccc3)CC2)cc1` [Example 43, 3-cyclohexyl-1-(4-methoxybenzyl)-1-((1r,4r)-4-phenylcyclohexyl)urea], for which the concentration for half-maximal inhibition (IC50) is under 100 nM.

In the case of `COc1ccc(CN(C(=O)NCc2ccc(F)cc2)C2CCC(c3ccccc3)CC2)cc1` (stereo not drawn) [Example 32, 3-(4-fluorobenzyl)-1-(4-methoxybenzyl)-1-((1r,4r)-4-phenylcyclohexyl)urea], the IC50 is under 10000 nM.

For the compound `COc1ccc(CN(C(=O)NC2CCCC2)C2CCC(c3ccccc3)CC2)cc1` (stereo not drawn) [Example 44, 3-cyclopentyl-1-(4-methoxybenzyl)-1-((1r,4r)-4-phenylcyclo-hexyl)urea], the IC50 is under 1000 nM.

With `O=C(O)Cc1ccc(CN(C(=O)Nc2ccc(Cl)cc2F)[C@H]2CC[C@H](c3ccnc4ccc(F)cc43)CC2)cc1` [Example 26, 2-(4-((3-(4-chloro-2-fluorophenyl)-1-(trans-4-(6-fluoroquinolin-4-yl)cyclohexyl)ureido)methyl)phenyl) acetic acid], the IC50 is under 100 nM.

`O=C(Nc1ccc(Cl)cc1F)N(Cc1ccccc1)[C@H]1CC[C@@H](c2ccnc3ccc(F)cc32)CC1` [Example 24, 1-benzyl-3-(4-chloro-2-fluorophenyl)-1-(cis-4-(6-fluoroquinolin-4-yl)cyclohexyl)urea]: the IC50 is under 100 nM.

As to `CN(C(=O)Nc1ccc(Cl)cc1)[C@H]1CC[C@@H](c2ccnc3ccc(F)cc32)CC1` [Example 15, 3-(4-chlorophenyl)-1-(cis-4-(6-fluoroquinolin-4-yl)cyclohexyl)-1-methylurea], the IC50 was under 1000 nM.

`O=C(Nc1ccc(Cl)cc1F)N(Cc1ccccc1)[C@H]1CC[C@H](c2ccnc3ccc(F)cc32)CC1` [Example 21, 1-benzyl-3-(4-chloro-2-fluorophenyl)-1-(trans-4-(6-fluoroquinolin-4-yl)cyclohexyl)urea]: the IC50 is under 1000 nM.

As for `COc1ccc(CN(C(=O)Nc2ccc(OC(F)(F)F)cc2)[C@H]2CC[C@H](c3ccccc3)CC2)cc1` [Example 10, 1-(4-methoxybenzyl)-1-(trans-4-phenylcyclohexyl)-3-(4-(trifluoromethoxy)phenyl)urea], the IC50 was under 1000 nM.

As to `N#Cc1ccc(NC(=O)N(Cc2ccccc2)[C@H]2CC[C@H](c3ccnc4ccc(F)cc43)CC2)cc1` [Example 22, 1-benzyl-3-(4-cyanophenyl)-1-(trans-4-(6-fluoroquinolin-4-yl)cyclohexyl)urea], the 50% inhibitory concentration (IC50) was under 10000 nM.

Consider `C[C@@H](NC(=O)N(Cc1ccc(CC(=O)O)cc1)[C@H]1CC[C@H](c2ccnc3ccc(F)cc32)CC1)c1ccc(F)cc1` [Example 41, 2-(4-((3-((R)-1-(4-fluorophenyl)ethyl)-1-((1 r,4R)-4-(6-fluoroquinolin-4-yl)cyclohexyl)ureido)methyl)phenyl)acetic Acid], for which the IC50 is under 100 nM.

Regarding `COc1ccc(CN(C(=O)NC2CC2)C2CCC(c3ccccc3)CC2)cc1` (stereo not drawn) [Example 45, 3-cyclopropyl-1-(4-methoxybenzyl)-1-((1r,4r)-4-phenylcyclo-hexyl)urea], the IC50 is under 1000 nM.

The record behind these values is patent US10696648B2, “Inhibitors of indoleamine 2,3-dioxygenase and methods of their use” (BRISTOL-MYERS SQUIBB COMPANY, priority 2016, dated 2020).
